According to ChEMBL document CHEMBL3507680, “University of Dundee, Gates Library screen for HepG2 cell viability”:

Assay: Human HepG2 cell viability assay in 384 well format
Assay type: toxicity, cell-based
Parameters: dose 125 nL, time 70.5 hour; concentration not given beside the values
Conditions: HepG2 cells, read-out: Inhibition

Structure (SMILES)	cytotoxicity at 70.5 h
CC(C)NC(=O)c1cc2c(s1)CCN2c1ncccn1	3.85%
O=C(c1ccccc1)N1CCO[C@@H]2CNC[C@@H]21	-5.73%
COCCNC(=O)C[C@@H]1COC[C@H]2CN(C(=O)COC)C[C@@H]12	-8.18%
CCn1nnc2c1C(COC)CN(Cc1ccco1)C2 (stereo not drawn)	39.7%
O=C(c1ccoc1)N1Cc2cnn(CC3CC3)c2C(COCC2CC2)C1 (stereo not drawn)	16%
O=C(NC1CC1)N1C[C@@H]2CCN(C(=O)c3cscn3)[C@@H]2C1	10.3%
CCN1Cc2ccccc2CC2(CCN(CC3CCC3)CC2)C1=O	11.7%
Cc1cc(C(=O)NC2CCc3c(ccc(=O)n3CC3CC3)C2)no1 (stereo not drawn)	-6.82%
CCS(=O)(=O)N1CCN(CCOC)c2ncccc2C1	-4.33%
Cn1nccc1-c1ncc(-c2cc(C(=O)O)n(CC3CC3)c2)cn1	6.58%
Cn1ccnc1CN1CCC2(CC1)CC(N1CCCC1)c1ccccc12 (stereo not drawn)	-4.57%
Cn1cc(-c2cnc(-c3ccnn3C)nc2)cc1C(=O)NC1CC1	-4.34%
CS(=O)(=O)N1C[C@@H]2CCN(C(=O)c3cscn3)[C@@H]2C1	-2.23%
COCCN1CCN(S(=O)(=O)C2CC2)Cc2cccnc21	-5.48%
Cn1cc(CN2CCc3ccc(=O)n(CC4CC4)c3CC2)cn1	4.08%
Cc1cn2c(=O)c(-c3ccnc(N[C@@H](C)CO)n3)cnc2s1	-5.83%
COCCN1CC(=O)c2sc(NCc3ccccc3)nc2C1	0.849%
OC[C@@H]1CCCN1c1nccc(-c2c[nH]nc2-c2ccncc2)n1	-2.39%
COc1ccc2[nH]cc(-c3ccnc(N4CCC(C)CC4)n3)c2c1	1.51%
NS(=O)(=O)NCc1cc(-c2ccco2)n(CC(F)(F)F)n1	-5.08%
Cc1ncc(-c2ccnc(N[C@@H](C)CO)n2)c(C2CCCCC2)n1	24.8%
O=c1c(-c2ccnc(N3CCC[C@H]3CO)n2)cnc2sccn12	-1.75%

Structure (SMILES)	cytotoxicity at 70.5 h
CCNc1nc2c(s1)C(=O)CN(C(=O)NCc1ccccc1)C2	-0.493%
CC(C)NC(=O)N1CC(=O)c2sc(NC3CCCCC3)nc2C1	3.79%
OCCNc1nccc(-c2cn3nccc3nc2C2CCCCC2)n1	-8.52%
COc1cccc(OC)c1-c1ccnc2cc(CC(=O)N(C)C)nn12	-11.5%
CC(=O)Nc1nc(C)c(S(=O)(=O)NCCc2ccccn2)s1	-3.16%
CC(=O)Nc1nc(C)c(S(=O)(=O)NCCc2cccnc2)s1	1.62%
CC(=O)N1CCC(n2nccc2-c2cnc(N3CCCC3)nc2)CC1	-9%
Cc1cn2c(=O)c(-c3ccnc(N4CCC[C@@H]4CO)n3)cnc2s1	-3.36%
COCCCNc1nc(CNC(=O)C2CCC2)cc(-c2ccco2)n1	-5.78%
CC(=O)N1CCC(n2nccc2-c2cnc(N(C)CCO)nc2)CC1	-6.31%
c1cc(-c2cn3nccc3nc2C2CCCCC2)nc(N2CCCC2)n1	-7.05%
NC(=O)[C@H]1CCCN(c2nccc(-c3c[nH]nc3-c3cccnc3)n2)C1	-2.79%
COc1cccc(OC)c1-c1ccnc2cc(CC(=O)NC(C)C)nn12	-7.86%
CC(C)[C@H](NS(C)(=O)=O)C(=O)NCc1cc(-c2ccco2)nn1C	7.38%
CN(CCO)c1ncc(-c2ccc(NC(=O)[C@@H]3CCCCN3)cc2)cn1	-1.72%
CC[C@@H](C)[C@@H](N)C(=O)Nc1cccc(-c2cnc(N(C)CCO)nc2)c1	-6.3%
CNc1nc2c(s1)C(=O)CN(C(=O)[C@@H](N)Cc1cccc(OC)c1)C2	-5.78%
CC[C@H](C)[C@H](N)C(=O)N1CC(=O)c2sc(NCc3ccccc3)nc2C1	7.34%
CC[C@H](C)[C@H](N)C(=O)Nc1nc(-c2cnc(N3CCOCC3)nc2)cs1	-1.59%
CC(C)[C@H](NS(C)(=O)=O)C(=O)NCc1cc(-c2cccc(Cl)c2)nn1C	6.72%
Cc1[nH]c2ccccc2c1-c1ccnc(NC[C@H](O)CO)n1	26.8%
CC[C@H](C)Nc1nccc(-c2cnc3sc(C)c(C)n3c2=O)n1	23.3%

Structure (SMILES)	cytotoxicity at 70.5 h
Cc1csc2ncc(-c3ccnc(N4CCN(C)CC4)n3)c(=O)n12	24.1%
CN1CCCN(c2nccc(-c3c[nH]nc3C3CCCCC3)n2)CC1	-3.95%
Cc1ncc(-c2ccnc(N3CCCCCC3)n2)c(-c2cccnc2)n1	-10.6%
CC(C)[C@H]1COC(=O)N1Cc1nncn1C(C)C	-7.29%
CCCOC(=O)N1CCn2nc(-c3nc4ccccc4n3C)cc2C1	-5.25%
CCNc1ncc(CN2C[C@@H](CN3CCC(CO)CC3)[C@@H](CO)C2)cn1	-2.73%
CN1CC2(CCN(C(=O)COc3ccc(Cl)cc3Cl)CC2)OC1=O	14.5%
c1ccc(-c2nc(CCNc3nnc(C4CCC4)o3)no2)cc1	15.9%
COCC(=O)Nc1ccccc1Sc1c(C)n[nH]c1C	25.1%
CN(C)CCCN1CC2(CCN(C3CCCOC3)CC2)OC1=O (stereo not drawn)	-6.54%
CC(C)(C)NC(=O)CN1CCCC(c2ccc(C(=O)O)cc2)C1 (stereo not drawn)	0.492%
CCCn1cc(-c2ccnc(NC3CCc4ccccc4C3)n2)c(C)n1 (stereo not drawn)	19.3%
CN(Cc1ccccn1)c1nccc(N2CCN[C@H]3CS(=O)(=O)C[C@H]32)n1	8.37%
COc1cncc(-n2ccnc2-c2ccc(C(=O)O)s2)c1	-10%
C[C@@H]1CN(C(=O)c2nc3sccn3c2-c2ncc[nH]2)C[C@H](C)O1	-7.22%
Cc1cc(=O)[nH]c(NCCNC(=O)c2ccccc2N2CCCC2)n1	32.3%
O=S1(=O)C[C@@H]2[C@H](C1)N(Cc1ncc[nH]1)CCN2C/C=C/c1ccccc1	-7.45%
COc1ccc(OC)c(-n2cnnc2C)c1	-3.42%
COc1cc(C(=O)N(C)C(C)Cc2cc(C)ccn2)ccn1 (stereo not drawn)	25.8%
CCn1c(CC2CCN(S(=O)(=O)Cc3ccccc3)CC2)nn(C)c1=O	-9.61%
Cc1nsc(NC(=O)NC2(CN3CCCCC3)CCCCC2)n1	-9.47%
CC(C)OCCNC(=O)C1CCC(=O)N(C2CCCC2)C1 (stereo not drawn)	-4.22%

Structure (SMILES)	cytotoxicity at 70.5 h
CCC(CO)N(Cc1cccs1)C(=O)Cc1ccncc1 (stereo not drawn)	-8.11%
COc1ccc(CCN2C(=O)O[C@@H]3CN(C)C[C@@H]32)cc1	-10.7%
CCN(CCO)Cc1cn(-c2cccc(F)c2)nc1-c1ccc(C)o1	-14.6%
O=S1(=O)CCC(n2nc(Cc3cccs3)nc2-c2cnccn2)C1 (stereo not drawn)	0.418%
COc1cccc2ccc(N3CCC(O)(c4ccc(C)cn4)CC3)nc12	-21.5%
Cc1cc(CN2CCN(C(=O)C3CCC3)[C@@H]3CS(=O)(=O)C[C@@H]32)ccc1F	1.76%
COc1ccccc1C(=O)N1CCN(C(=O)CCn2ccnc2)CC1	-5.01%
CC(NC(=O)c1cc2n(n1)CCCN(C)C2)c1cn2ncsc2n1 (stereo not drawn)	-7.44%
CSCC[C@@H](CO)Nc1ccc(-c2nc(C3CC3)no2)cn1	-3.18%
CCn1ccnc1CN1CCCC(CO)(CCCc2ccccc2)C1 (stereo not drawn)	-0.875%
NC(=O)CCn1cc(CNCCCc2ccncc2)c2ccccc21	-3.77%
Cc1nc(-c2cccnc2)ncc1C(=O)N1CCC(c2ncc[nH]2)CC1	-3.5%
COC(=O)c1cc(OCC2CCC2)cc(C(=O)N[C@H]2CCCC[C@@H]2O)c1	-8.47%
COC1CCCOC12CCN(C(=O)NCc1ccco1)CC2 (stereo not drawn)	-1.17%
COc1ccc(CNC(=O)Cc2csc(C(C)=O)c2)cc1	-8.65%
CC(C)n1cnnc1Cn1ccc2ncccc2c1=O	1%
CCCN1CCN(C(=O)c2ccc(Cl)cn2)[C@H]2CS(=O)(=O)C[C@H]21	-10.4%
CN(Cc1ccc(-n2cccn2)cc1)C[C@@H]1CCCN2CCCC[C@H]12	24.9%
CN1CCC(C(=O)NCCC2CN(c3cnn(C)c(=O)c3)CCO2)CC1 (stereo not drawn)	-7.81%
c1cc2c(cc1-c1noc3c1CN(C1CCC1)CC3)OCO2	1.77%
CC(C)N1CCCC(C(=O)NCc2noc(Cc3ccccc3)n2)C1 (stereo not drawn)	8.23%
Cc1cc(C(=O)N2CCc3c(nc(-c4ccncc4)[nH]c3=O)C2)no1	2.99%

Structure (SMILES)	cytotoxicity at 70.5 h
Cc1ccc(NC(=O)N2CCCC(O)(CO)CC2)cc1Cl (stereo not drawn)	-4.85%
CC(C)CCN1CCNC(=O)C1CC(=O)NCCc1cc(O)ncn1 (stereo not drawn)	-11%
CCC1CN(Cc2nnc(C(C)C)o2)CCC(=O)N1Cc1ccccc1 (stereo not drawn)	-10.7%
CN(Cc1cnccn1)CC1CCOc2ccccc2C1 (stereo not drawn)	-12.2%
CCc1cnc(N)nc1NCCC(=O)NC1CCCCC1	-25.4%
O=C(O)[C@@H]1CN(Cc2ccc3nsnc3c2)C[C@H]1c1cccnc1	1.8%
CNc1ncc(-c2csc(NC(=O)C[C@H]3COCCN3)n2)cn1	-11.4%
CC(C)N(C)Cc1cncc2c1CCN(C1CCOCC1)C2	-6.55%
O=C(O)[C@]12CCCN(CC3CCOC3)C[C@H]1CN(c1ncccn1)C2 (stereo partly drawn)	-5.74%
CCOCc1nn(C)c2c1CN(Cc1cccs1)CC2	-7.58%
O=C(c1ccsc1)N1CCO[C@@H]2CN(Cc3nccs3)C[C@@H]2C1	-3.17%
Cc1cnc(N2CCC3(CCN(Cc4csc(C)n4)C3=O)C2)nc1 (stereo not drawn)	-5.87%
Cn1cccc1C(=O)N1CCO[C@@H]2CN(Cc3nccs3)C[C@@H]2C1	-6.7%
Cc1noc(C)c1CN1CCOCC12CCN(c1ncccn1)CC2	-8.87%
N#Cc1ccc(N2CCC3(CC2)CC(N2CCOCC2)CO3)cc1 (stereo not drawn)	-6.28%
CN(C)C(=O)Cn1c2c(ccc1=O)CCN(Cc1cnn(C)c1)CC2	2.17%
CC(C)CC(=O)N1CC[C@H]2N(C)CC[C@@]2(C(=O)Nc2cccnc2)CC1	-9.05%
CN(C)CCOCc1cncc2c1CCN(C(=O)C1CCOCC1)C2	-6.54%
Cc1noc(C)c1CN1CCn2cc(CNc3ccccn3)nc2C1	5.28%
CN(C)CCOCc1cncc2c1CCN(C1CCOCC1)C2	-11.2%
